Data published in PMC3898417, “A peptide derived from TIMP-3 inhibits multiple angiogenic growth factor receptors and tumour growth and inflammatory arthritis in mice” (Angiogenesis, 2013).
Bridges are numbered along the chain shown (N, C = ends). Where no end group is shown, it is not given here.

How the values were obtained:
EGFR = assay: Phospho-receptor tyrosine kinase array; type: cell-based, human; conditions: HuDMEC, 100 ng/ml EGF 5 min, phospho-RTK array, preliminary screen, data not shown
Procedure: (§1) Serum-deprived HuDMEC were pre-treated with test peptides for 1 h and then stimulated with growth factors (0.5 nM VEGF165, 1.6 nM bFGF, 1 nM PDGF-BB, 1.6 nM hepatocyte growth factor, 100 ng/ml EGF or 100 ng/ml insulin-like growth factor I) for 5 min. Cells were then lysed and phosphorylated proteins detected using (a) a receptor tyrosine kinase array (Human Phospho-Receptor Tyrosine Kinase Array Kit, R&D Systems Ltd.) or (b) sandwich ELISA (Duo-sets, R&D Systems Ltd.) according to the manufacturer’s instructions.

[1] = tested on: recombinant human VEGFR-2; assay: Solid phase binding assay: competition with biotinylated-VEGF165; conditions: plate-coated rhVEGFR-2-Fc; biotinylated-VEGF165 2.4 nM, 1 h room temperature; Fig. 1
Procedure: Ninety six-well plates were coated with the extracellular domain of recombinant human VEGFR-2 fused to the Fc domain of human IgG1 (rhVEGFR-2, R&D Systems, UK) by overnight incubation followed by blocking in 5 % bovine serum albumin/PBS. […] After washing, the biotinylated-VEGF165 was detected with avidin-horse-radish peroxidase and OPD substrate (Sigma-Aldrich, UK) followed by spectrophotometry.

VEGFR-2 [2] = assay: Phosphorylation RTK sandwich ELISA; type: cell-based, human; conditions: HuDMEC, peptide 1 h, ligand 5 min, n = 3
Procedure: as §1

FGFR-3 = assay: Phosphorylation RTK sandwich ELISA; type: cell-based, human; conditions: HuDMEC, peptide 1 h, ligand 5 min, n = 3
Procedure: as §1

FGFR-2α = assay: Phosphorylation RTK sandwich ELISA; type: cell-based, human; conditions: HuDMEC, peptide 1 h, ligand 5 min, n = 3
Procedure: as §1

HuDMEC [3] = assay: VEGF165-induced cell migration (Boyden chamber); type: cell-based, human; conditions: 0.5 nM VEGF165, 4.5 h, up to 1 μM, n = 4
Procedure: The ability of the p700 peptide to inhibit VEGF165-induced EC migration was determined using a multi-well Boyden chamber (Neuro Probe, Gaithersburg, USA). Briefly, serum-starved HuDMEC were treated with p700 for 1 h, washed and plated in the upper chamber in EBM-2 medium containing 1 % FCS on an 8 μm fibronectin pre-coated polycarbonate filter (Neuro Probe, Gaithersburg, USA). The cells were then left to migrate across the filter for 4.5 h at 37 °C with media containing 0.5 nM VEGF165 in the presence and absence of inhibitors in the lower chamber. After the incubation, non-migrating cells on the upper side of the membrane were scraped off and the migrated cells were stained with Hema Gurr® rapid staining kit (Merck Chemicals Ltd, Nottingham, UK). Migrated cells were counted using a light microscope at 160× magnification in three random fields per well of three separate wells.

HuDMEC [4] = assay: VEGF165-induced cell proliferation (BrdU); type: cell-based, human; conditions: peptide 1 h then 0.5 nM VEGF165 24 h, up to 1 μM, n = 4
Procedure: Human dermal microvascular endothelial cells were serum-starved followed by incubating with p700 peptide for 1 h and then 0.5 nM of VEGF165 for 24 h at 37 °C. Cell proliferation was determined using a BrdU cell proliferation assay kit (Merck Chemicals Ltd, Nottingham, UK).

4T1 mammary tumour = assay: Syngeneic mammary tumour model (4T1); type: in vivo, BALB/c mice
Procedure: 10^6 4T1 cells were subcutaneously (s.c.) implanted into the right flank of 5–6 weeks old female BALB/c mice (Charles River Laboratories, Margate, UK) and grown until the tumour size reached 100–350 mm^3. The tumour sizes were measured using callipers as described previously. Once the size of the tumours reached 100–350 mm^3, mice were randomized into control and treatment groups and injected with either vehicle alone (PBS), 0.025, 0.25 or 2.5 mg/kg of p700 peptide in PBS, either directly into the tumour (i.t.) once per week for 2 doses; or intravenously (i.v.) every other day for 5 doses. At the end of the experiment, animals were culled and tumours and normal tissues, including lung and liver, excised and fixed with 10 % neutral buffered formalin for subsequent analysis, which included general histology and quantitative measurement of microvascular density (MVD) and necrosis. For MVD measurement, rabbit-anti-mouse CD31 (AbD Serotech, Kidlington, Oxford, UK) antibody was used and sections were stained according to standard immunohistological staining protocols for formalin-fixed tissue sections. Microvessel density was estimated by measuring the percentage of CD31 positive staining in the tumour sections (15 areas per tumour slide, 7 tumour slides per group) using AnalySIS^^D image analysis software (Olympus, UK). For the necrotic area inside the tumour, tumour slides were stained with H&E. Images were measured at 200× magnification, photographed (15 areas per tumour slide, 7 tumour slides per group) and analysed by AnalySIS^^D image analysis software (Olympus, UK). Normal tissues including lung and liver were stained with H&E to study tumour metastasis. Total number of metastases per mouse was determined as the number of metastatic foci on five sections for each animal (n = 7). Incidence of metastasis was calculated as the percentage of mice with one or more metastatic nodules in the tissues. Metastasis severity was scored as follows: […], minimal (score 1 = ≤ 4 metastatic nodules), medium (score 2 = 5–7 metastatic nodules) or extensive involvement (score 3 = ≥ 8 metastatic nodules). Each nodule contained ≥5 nuclei.

HuDMEC [5] = assay: Tube formation assay on Matrigel; type: cell-based, human
Procedure: Serum-starved HuDMEC were seeded onto Matrigel™ matrix pre-coated 96 well plates (BD Biosciences, Cowley, Oxford, UK) at a density of 1 × 10^4 cells/well in 100 μl EBM-2 medium. Peptides were then added into each corresponding well and incubated for 1 h at 37 °C, followed by stimulated with growth factors, 0.5 nM VEGF165, 1 nM PDGF-BB or 1.6 nM bFGF, to induce tubule development. The tubules formed were examined 6 h after stimulation under a low power (40×) light microscope. Images were captured and analysed by measuring the average tubule length using ImageJ software (National Institutes of Health, USA).

VEGFR-2 [6] = assay: Immunoblotting of VEGF165-induced VEGFR-2 phosphorylation; type: cell-based, human; conditions: 1 μM, HuDMEC, western blot; n = 3
Procedure: Transfected HUVEC or HuDMEC pre-treated with 1 μM test peptides for 1 h, were stimulated with 0.5 nM of VEGF165 for 2, 5 or 10 min. Cells were lysed and phosphorylated proteins detected by western blotting using phospho-specific antibodies to either VEGFR-2, Erk1/2 or PI3K (New England BioLabs, UK). Band intensities were quantified using Bio-Rad Quantity One Analysis software and normalized using U, un-stimulated control, as 0 %; and VEGF165, positive control, as 100 % of protein phosphorylation.

With “KIKSCYYLPCFVTSKN (disulfide 5-10 (inferred)) [p700]” the “inhibition of EGFR” value (EGFR) was “not inhibited”, the “ability to inhibit the binding of VEGF165 to rhVEGFR-2” value [1] was “able to inhibit” and the “inhibition of VEGFR-2 phosphorylation” value (VEGFR-2 [2]) was “significant inhibition”. The “inhibition of FGFR-3 phosphorylation” value (FGFR-3) was “significant inhibition”, the “inhibition of FGFR-2α phosphorylation” value (FGFR-2α) was “significant inhibition” and the “maximum inhibition of VEGF165-induced migration” value (HuDMEC [3]) was 67%. The “maximum inhibition of VEGF165-induced cell proliferation” value (HuDMEC [4]) was 40%, the increased tumour necrosis (4T1 mammary tumour; H&E sections, treated group vs control) was “failed to reach significance” and the “reduction in microvascular density (anti-CD31 staining)” value (4T1 mammary tumour; both treatment groups (i.t. and i.v.) compared to control groups, n = 7 tumours/group) was “approximately 50%”. For the same sequence, the “effect on tumour growth, intravenous dosing” value (4T1 mammary tumour; i.v. every 2 days, 0.25 mg/kg or above, 4T1 s.c. in BALB/c mice, n = 7) was “almost totally abolished tumour growth”, the decreased metastases (4T1 mammary tumour; lung and liver H&E sections, treated group vs control) was “failed to reach significance” and the “effect on tumour growth, intra-tumour dosing” value (4T1 mammary tumour; weekly i.t. dose of 0.25 mg/kg, 4T1 s.c. in BALB/c mice, n = 7) was “almost totally abolished tumour growth”. For the same sequence, the “inhibition of VEGF165-induced HuDMEC tube formation” value (HuDMEC [5]; 1 μM peptide, 0.5 nM VEGF165, 6 h, n = 4) was over 99%, the “inhibition of tubule formation in response to VEGF121” value (HuDMEC [5]; 1 μM peptide, VEGF121, n = 4) was over 97% and the “inhibition of PDGF-BB-induced tubule formation” value (HuDMEC [5]; HuDMEC, 1 nM PDGF-BB, 6 h, n = 3, Fig. 3b) was “inhibited”. For the same sequence, the “inhibition of bFGF-induced tubule formation” value (HuDMEC [5]; HuDMEC, 1.6 nM bFGF, 6 h, n = 3, Fig. 3b) was “inhibited”, the “effect on tubule formation in the absence of VEGF” value (HuDMEC [5]; relative to untreated cells, data not shown) was “no effect” and the “inhibition of VEGF165-induced VEGFR-2 phosphorylation” value (VEGFR-2 [6]) was “approximately 50%”.
